The target of the assay is RAC-alpha serine/threonine-protein kinase (Homo sapiens, UniProt P31749). Description: Z-LYTE Kinase Assy. The following applies: pH 7.5; 25 °C. The source says: The Z-LYTE assay (Invitrogen Corporation) employs a FRET-based, coupled-enzyme format and is based on the differential sensitivity of phosphorylated and non-phosphorylated peptides to proteolytic cleavage. A site-specific protease recognizes and cleaves nonphosphorylated peptides. […] Cleavage disrupts FRET between the donor (coumarin) and acceptor (fluorescein) fluorophores on the peptide, whereas uncleaved, phosphorylated peptides maintain FRET. The ratio of donor emission to acceptor emission after excitation of the donor fluorophore at 400 nm, quantitates reaction progress.

The structures appear in SMILES notation.

This passage reports IC50 and Ki results from BindingDB's records for doi:10.1021/jm048962u (The Burnham Institute, 2005).

RAC-alpha serine/threonine-protein kinase, sequence (P31749 whole entry): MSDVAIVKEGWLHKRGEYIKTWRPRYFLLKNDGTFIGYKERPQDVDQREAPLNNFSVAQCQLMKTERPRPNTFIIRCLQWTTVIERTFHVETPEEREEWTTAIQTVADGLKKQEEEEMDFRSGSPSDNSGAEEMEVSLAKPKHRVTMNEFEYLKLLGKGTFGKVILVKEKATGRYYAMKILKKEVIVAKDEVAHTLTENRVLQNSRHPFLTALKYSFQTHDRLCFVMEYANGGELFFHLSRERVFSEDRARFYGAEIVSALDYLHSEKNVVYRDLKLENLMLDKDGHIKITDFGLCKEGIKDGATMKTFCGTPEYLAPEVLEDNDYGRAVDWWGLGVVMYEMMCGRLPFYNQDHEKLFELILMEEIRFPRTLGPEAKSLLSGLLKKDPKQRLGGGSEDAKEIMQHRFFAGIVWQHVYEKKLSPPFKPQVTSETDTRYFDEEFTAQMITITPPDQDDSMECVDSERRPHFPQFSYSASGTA

For the compound `C=c1c(C#N)c2[nH]c(N)c(C#N)c(C)c-2c1=Cc1ccc(-c2ccc(C(=O)O)c(Cl)c2)o1`, half-maximal inhibition (IC50) required 2600 nM and affinity was put at a Ki of 1100 nM.
On to `C=c1c(C#N)c2[nH]c(N)c(C#N)c(C)c-2c1=Cc1ccc(-c2cccc(C(=O)O)c2)o1` [3-(5-{[(5E)-2-amino-3,7-dicyano-4,6-dimethyl-5H-cyclopenta[b]pyridin-5-ylidene]methyl}furan-2-yl)benzoic acid], for which the IC50 (usually the midpoint of a concentration-inhibition curve) amounted to 60200 nM.
